Reference: patent US20220324770A1, “NITRIFICATION INHIBITORS” (The University of Melbourne, priority 2019, published 2022)

Key:
South Johnstone soil [1] = assay: Soil microcosm incubation (nitrification of applied ammonium), South Johnstone soil; conditions: for Nitrified NH4+—N (%) Day 3 / Nitrified NH4+—N (%) Day 7 / Nitrified NH4+—N (%) Day 14 / Nitrified NH4+—N (%) Day 21 / Nitrified NH4+—N (%) Day 28: 10 mol %
Experimental: (§1) The soil used in this study was collected from four different locations in Victoria, Australia: (i) a wheat cropping soil from Horsham (36° 45′S, 142° 07′ E), (ii) a rotational cropping soil from Dahlen (36° 37′S, 142° 09′ E), (iii) a vegetable growing soil from Clyde (38° 08′S, 145° 20′ E), and (iv) a pasture soil from Terang (38° 15′S, 142° 52′E). In addition, a sugarcane cropping soil from South Johnstone in northern Queensland (17° 34′S, 145° 57′ E) was also studied. The water content of the soil was calculated before commencing each experiment, from samples that were oven-dried to constant weight. The soil's water-filled pore space (WFPS) was in the range 52%-61%, which is within the recommended 50-70% range for microbial activity due to oxygen and nutrient availability (Fichtner, T., et al., Applied Sciences, 2019, 9, 496).
(§2) Soil microcosm incubations were carried out in 250 ml polypropylene specimen containers (Sarstedt, Germany), containing 18.24 g oven dry-weight equivalent of soil. Microcosms were re-wetted and pre-incubated at the test temperature for seven days to revive soil microbial activity. Following pre-incubation, the remaining volume to reach the desired water-filled pore spaces (WFPS %) was applied as one of the following treatment solutions; (NH4)2SO4(Control), (NH4)2SO4+DMPP, or (NH4)2SO4+one of Compounds 1-23. Each treatment was applied in triplicate per soil type, so that n=3 at each time point.
(§3) Treatment solutions were prepared such that each microcosm received (NH4)2SO4 at a rate of 100 mg N per kg soil, Compounds 1-23 at 10 mol % of applied N, or DMPP at one of 1.5, 3.6 or 10 mol % of applied N, referred to as L-DMPP, M-DMPP or H-DMPP respectively.
(§4) The microcosms were incubated for 0, 3, 7, 14, 21 or 28 days, where day 0 samples were extracted following 1-hour incubation post-treatment. Soil microcosms were aerated and moisture levels were replenished based on weight loss every few days throughout the incubation period.
(§5) At the end of each incubation period, soil microcosms were destructively sampled by treatment with 2M KCl (100 mL). After shaking for 1 hour, soil-KCl solutions were filtered (Whatman 42) before storing the filtrates at −20° C. until the conclusion of the experiment. All KCl extracts were then analysed by Segmented Flow Analysis (San++, Skalar, Breda, The Netherlands) for the concentration of nitrogen from ammonium (NH4^+—N) and nitrogen from NO3 and NO2 (NOx^−—N) after appropriate dilutions. Results are reported as the mean of three replicates, errors reported are standard errors of the mean.
(§6) Nitrification calculations were performed as previously reported (Aulakh, M., et al., Biology and Fertility of Soils 2001, 33, 258-263; Mahmood, T., et al., Soil Research 2017, 55, 715-722) without correction for the initial baseline concentrations of NH4^+—N or NO3^− N in the untreated soil. For each treatment nitrified NH4^+—N (%) was calculated according to eqn. 1:
(§7) where [NH4^+—N]0 is the NH4^+—N concentration (in mg N kg^−1 soil) of the soil on day 0 and [NH4^+—N]t is the NH4^+—N concentration (in mg N kg^−1 soil) of the soil at a given time point t.

Terang soil = assay: Soil microcosm incubation (nitrification of applied ammonium), Terang soil
Experimental: as §1, §2, §3, §4, §5, §6, §7

Dahlen soil = assay: Soil thin-layer chromatography (TLC) leaching study, Dahlen soil; assay type: physicochemical; conditions: Dahlen soil TLC
Experimental: (§8) TLC plates were prepared based on methods described in the literature (Helling, C. S., Turner, B. C, Science 1968, 162, 562-563; Mohammad, A., Jabeen, N., JPC—Journal of Planar Chromatography—Modern TLC 2003, 16, 137-143). Masking tape (3 layers, ˜[…] total thickness) was used to outline three columns (4 cm W×12 cm H) on a glass TLC plate (20×20 cm). A slurry of freshly ground soil in distilled H2O (˜2:3 m/v) was then poured onto the prepared plate and spread evenly using a glass rod. Once even, the plate was dried overnight in an oven at 35° C. Careful removal of the masking tape afforded the TLC plate ready for sample application.
(§9) Samples of DMP (the active core of DMPP) or Compound 16 (˜1 mg) dissolved in acetone (100 μL) were pipetted in a straight line across the soil, 2 cm above the base of the plate. Application band thickness was kept under 0.5 cm. After 30 mins of drying time, the TLC plate was developed inside a glass developing chamber with distilled H2O (depth of 0.5 cm) until the solvent front reached the top of the soil (˜1 hr). […] The plate was then allowed to air dry overnight.
(§10) Once dry, the plate was divided into six horizontal bands corresponding to Rf values of: (1) <0.05 (baseline), (2) 0.05 to 0.25, (3) 0.25 to 0.45, (4) 0.45 to 0.65, (5) 0.65 to 0.85, and (6) 0.85 to 1. In sequence, soil in each band was carefully scraped off the glass backing and collected in vials. Special care was taken to avoid cross-contamination between soil of different bands, and the separate channels.
(§11) Individual soil bands collected from the TLC plate were extracted as follows: • 1. Addition of an aqueous solution of CaCl2/MgSO4 (0.01M and 0.45M respectively, 2 mL). • 2. Sonication for 5 minutes then manual shaking for 30 seconds. • 3. Addition of methyl-tert-butyl ether (MTBE, 2 mL) then manual shaking for 30 seconds. • 4. Sonication for 10 minutes then manual shaking for 30 seconds. • 5. Rested until soil began to settle, then frozen overnight at −20° C. • 6. After partial defrosting, the ethereal extract was filtered through nylon syringe filters (FilterBio®, 13 mm diameter, 0.45 µm pore size).
(§12) The filtered ethereal extracts (450 μL) were spiked with 50 μL of a standard solution of either cyclododecanone in MTBE (1.97 mg/mL, for DMP-treated samples) or cyclooctanone in MTBE (6.37 mg/mL, for 16-treated samples). Samples were then directly analysed by GC-MS (method: 70° C. for 5 mins, then ramp 10° C./min to 250° C., hold at 250° C. for 17 mins [total run time=40 minutes]) to analyse the presence or absence of the inhibitor in each soil band.
(§13) GC-MS peak areas calculated for the standards cyclooctanone (Rt=9.1 mins) and cyclododecanone (Rt=15.8 mins) were compared to those calculated for Compound 16 (Rt=13.9 mins) and DMP (Rt=7.6 mins) respectively, for each soil sample extract where inhibitor was detected as follows:
(§14) As each treatment was run in triplicate, mean values are reported for detected inhibitor percentages for each Rf band, with errors presented as the standard deviation.
(§15) Samples of the DCD (˜1 mg) dissolved in methanol (300 μL) were pipetted in a straight line across the soil, 2 cm above the base of the plate. Application band thickness was kept under 0.5 cm. After 30 mins of drying time, the TLC plate was developed inside a glass developing chamber in distilled H2O (depth of 0.5 cm) until the solvent front reached the top of the soil (˜1 hr). […] The plate was then allowed to air dry overnight.
(§16) Individual soil bands collected from the TLC plate were extracted as follows: • 1. Addition of methanol (2 mL). • 2. Manual shaking for 30 seconds following sonication for 15 minutes. • 3. Once soil began to settle, the methanolic extract was filtered through nylon syringe filters (FilterBio®, 13 mm diameter, 0.45 µm pore size). • 4. 300 μL of the methanolic extracts were evaporated under nitrogen flow, and then the residues was taken up in ultrapure acetonitrile (1 mL). • 5. […]

South Johnstone soil [2] = assay: Soil thin-layer chromatography (TLC) leaching study, South Johnstone soil; assay type: physicochemical
Experimental: as §8, §9, §10, §11, §12, §13, §14, §15, §16

[3] = South Johnstone soil pH 5.0, 25° C.
[4] = South Johnstone soil pH 5.0, 35° C.

CCCCc1cn(CC(=O)OCC)nn1 [Compound 3, 4-Butyl-1H-1,2,3-Triazole-1-Acetic Acid Ethyl Ester]
Nitrified NH4+—N (%) Day 3 (South Johnstone soil [1]; South Johnstone soil pH 5.0, 25° C., negative = NH4+—N higher than day 0 (mineralisation)): −6.3 ± 0.7%
Nitrified NH4+—N (%) Day 7 (South Johnstone soil [1]; [3]): −7.9 ± 0.9%
Nitrified NH4+—N (%) Day 14 (South Johnstone soil [1]; [3]): −12.7 ± 0.7%
Nitrified NH4+—N (%) Day 21 (South Johnstone soil [1]; [3]): −13.9 ± 0.9%
Nitrified NH4+—N (%) Day 28 (South Johnstone soil [1]; South Johnstone soil pH 5.0, 25° C., day 28): −12.8 ± 0.8%
Nitrified NH4+—N (%) Day 3 (South Johnstone soil [1]; [4]): −11.8 ± 1.5%
Nitrified NH4+—N (%) Day 7 (South Johnstone soil [1]; [4]): −26.2 ± 1.5%
Nitrified NH4+—N (%) Day 14 (South Johnstone soil [1]; [4]): −34.8 ± 0.6%
Nitrified NH4+—N (%) Day 21 (South Johnstone soil [1]; [4]): −28.3 ± 1.4%
Nitrified NH4+—N (%) Day 28 (South Johnstone soil [1]; South Johnstone soil pH 5.0, 35° C., day 28): −18.6 ± 2.3%
effectiveness compared to treatment with DMPP (higher NH4+—N, lower NOx−—N) (South Johnstone soil [1]; South Johnstone soil, 25° C., day 28): statistically higher effectiveness
retaining NH4+—N vs DMPP (South Johnstone soil [1]; South Johnstone soil, 35° C.): performed statistically better than DMPP
retaining NH4+—N and slowing NOx−—N growth vs fertilised control (South Johnstone soil [1]; South Johnstone soil, 35° C., day 28): performed statistically better than the fertilised control
Nitrified NH4+—N (%) Day 3 (Terang soil; Terang soil pH 6.5, 25° C., day 3, compounds 10 mol % of applied N, L-DMPP 1.5 mol %, (NH4)2SO4 100 mg N per kg soil): 15.6 ± 3.0%
Nitrified NH4+—N (%) Day 7 (Terang soil; Terang soil pH 6.5, 25° C., day 7, compounds 10 mol %, L-DMPP 1.5 mol %): 29.4 ± 2.6%
Nitrified NH4+—N (%) Day 14 (Terang soil; Terang soil pH 6.5, 25° C., day 14, compounds 10 mol %, L-DMPP 1.5 mol %): 47.8 ± 3.5%
Nitrified NH4+—N (%) Day 28 (Terang soil; Terang soil pH 6.5, 25° C., day 28, compounds 10 mol %, L-DMPP 1.5 mol %): 99.9 ± 2.8%
retaining NH4+—N in the soil compared with the fertilised control (Terang soil; Terang soil, 25° C.): most effective treatments

N#CN=C(N)N [DCD, dicyandiamide, reference compound]
Rf range of largest DCD accumulation (Dahlen soil; HPLC detection, preliminary results): 0.65-1
Rf range of largest DCD accumulation (South Johnstone soil [2]; South Johnstone soil TLC, HPLC detection, preliminary results): 0.65-1

Cc1c[nH]nc1C [DMP, 3,4-dimethylpyrazole, reference compound]
Rf range in which the majority of the inhibitor was detected (Dahlen soil): 0.65-0.85
Detected Inhibitor (%) (Dahlen soil; Rf 0.45-0.65): 0.1 ± 0.2%
Detected Inhibitor (%) (Dahlen soil; Rf 0.65-0.85): 72 ± 16%
Detected Inhibitor (%) (Dahlen soil; Rf 0.85-1): 28 ± 16%
Detected Inhibitor (%) (South Johnstone soil [2]; South Johnstone soil TLC, Rf 0.25-0.45): 2 ± 2%
Detected Inhibitor (%) (South Johnstone soil [2]; South Johnstone soil TLC, Rf 0.45-0.65): 56 ± 12%
Detected Inhibitor (%) (South Johnstone soil [2]; South Johnstone soil TLC, Rf 0.65-0.85): 42 ± 13%
leaching in soil TLC (South Johnstone soil [2]; acidic South Johnstone soil): leach in a narrower band and to a lesser extent than Compound 16
